Columns and labels:
Assay type in all cases: in vivo
Heliothis virescens = Heliothis virescens egg / artificial diet test; settings: 96 h, application rate 200 ppm (concentration in well 18 ppm), eggs 0-24 h old on artificial diet, 4 days, egg mortality, larval mortality, growth regulation
Method: Heliothis Virescens (Tobacco Budworm):
Eggs (0-24 h old) were placed in 24-well microtiter plate on artificial diet and treated with test solutions at an application rate of 200 ppm (concentration in well 18 ppm) by pipetting. After an incubation period of 4 days, samples were checked for egg mortality, larval mortality, and growth regulation.

Tetranychus urticae = Tetranychus urticae bean leaf disc spray test; settings: foliar, 192 h, application rate 200 ppm, sprayed bean leaf discs, mite populations of mixed ages, 8 days, egg, larval and adult mortality
Source text: Tetranychus Urticae (Two-Spotted Spider Mite):
Bean leaf discs on agar in 24-well microtiter plates were sprayed with test solutions at an application rate of 200 ppm. After drying, the leaf discs are infested with mite populations of mixed ages. 8 days later, discs are checked for egg mortality, larval mortality, and adult mortality.

Plutella xylostella = Plutella xylostella artificial diet test; settings: 144 h, application rate 200 ppm (concentration in well 18 ppm), L2 larvae, 6 days, larval mortality, growth regulation
Method: Plutella Xylostella (Diamond Back Moth):
24-well microtiter plate (MTP) with artificial diet was treated with test solutions at an application rate of 200 ppm (concentration in well 18 ppm) by pipetting. After drying, the MTP's were infested with L2 larvae (7-12 per well). After an incubation period of 6 days, samples were checked for larval mortality and growth regulation.

Spodoptera littoralis = Spodoptera littoralis cotton leaf disc spray test; settings: foliar, 72 h, application rate 200 ppm, sprayed cotton leaf discs, L1 larvae, 3 days after treatment, mortality, feeding behavior, growth regulation
Source text: Spodoptera Littoralis (Egyptian Cotton Leafworm):
Cotton leaf discs were placed on agar in a 24-well microtiter plate and sprayed with test solutions at an application rate of 200 ppm. After drying, the leaf discs were infested with 5 L1 larvae. The samples were checked for mortality, feeding behavior, and growth regulation 3 days after treatment (DAT).

Thrips tabaci = Thrips tabaci sunflower leaf disc spray test; settings: foliar, 168 h, application rate 200 ppm, sprayed sunflower leaf discs, population of mixed ages, 7 days, mortality
Method: Thrips Tabaci (Onion Thrips):
Sunflower leaf discs were placed on agar in a 24-well microtiter plate and sprayed with test solutions at an application rate of 200 ppm. […] After an incubation period of 7 days, samples were checked for mortality.

Diabrotica balteata = Diabrotica balteata artificial diet test; settings: 120 h, application rate 200 ppm (concentration in well 18 ppm), L2 larvae, 5 days, larval mortality, growth regulation
Method: Diabrotica Balteata (Corn Root Worm):
A 24-well microtiter plate (MTP) with artificial diet was treated with test solutions at an application rate of 200 ppm (concentration in well 18 ppm) by pipetting. After drying, the MTP's were infested with L2 larvae (6-10 per well). After an incubation period of 5 days, samples were checked for larval mortality and growth regulation.

Measured: pest or weed control at 200 ppm

CCNC(=O)c1ccc(C2=NOC(c3cc(Cl)cc(Cl)c3)(C(F)(F)F)C2Cl)cc1C (stereo not drawn) [B3]
≥ 80%: all assays above

CCCCNC(=O)c1ccc(C2=NOC(c3cc(Cl)cc(Cl)c3)(C(F)(F)F)C2C)cc1C (stereo not drawn) [E1, N-butyl-4-[5-(3,5-dichloro-phenyl)-4-methyl-5-trifluoromethyl-4,5-dihydro-isoxazol-3-yl]-2-methyl-benzamide]
≥ 80%: all assays above

Source: patent US8822502B2, “Insecticidal compounds” (Syngenta Crop Protection LLC, priority 2008, dated 2014)
